Data as given in patent publication US7612097B2, “Method for producing bactericidal pyridine compound and bactericidal pyridine compound” (Tama Kagaku Kogyo Co., Ltd., priority 2003, dated 2009).
≈ marks a conversion by molar mass, not a printed value.

Key:
Type in all cases: cell-based
Bacillus cereus IFO 3001 [1] = experiment: Bacteriostatic activity MIC, broth dilution; details: nutrient broth, 37° C., 24 hours
Procedure: (§1) Using benzalkonium chloride as a control compound, minimum inhibitory concentrations (MICs) were determined.
(§2) Each minimum inhibitory concentration (MIC) was determined as will be described hereinafter. Aliquots of a suspension of stationary-phase cells, the cell concentration of which had been adjusted to 10^6 cells/mL with nutrient broth in accordance with the general broth dilution method, were mixed with serially-diluted solutions of a compound, respectively. Subsequent to stationary culture at 37° C. for 24 hours, the MIC value was determined depending upon whether or not any growth had taken place.
(§3) As test microorganisms, ten (10) Gram-negative bacteria and six (6) Gram-positive bacteria were used.

[2] = test system: Bacillus subtilis ATCC 6633; experiment: Bacteriostatic activity MIC, broth dilution; details: nutrient broth, 37° C., 24 hours
Procedure: as §1, §2, §3

[3] = test system: Bacillus subtilis IFO 3134; experiment: Bacteriostatic activity MIC, broth dilution; details: nutrient broth, 37° C., 24 hours
Procedure: as §1, §2, §3

[4] = test system: Escherichia coli K12 OUT 8401; experiment: Bacteriostatic activity MIC, broth dilution; details: nutrient broth, 37° C., 24 hours
Procedure: as §1, §2, §3

[5] = test system: Escherichia coli K12 W3110; experiment: Bacteriostatic activity MIC, broth dilution; details: nutrient broth, 37° C., 24 hours
Procedure: as §1, §2, §3

[6] = test system: Klebsiella pneumoniae ATCC 13883; experiment: Bacteriostatic activity MIC, broth dilution; details: nutrient broth, 37° C., 24 hours
Procedure: as §1, §2, §3

[7] = test system: Klebsiella pneumoniae ATCC 4352; experiment: Bacteriostatic activity MIC, broth dilution; details: nutrient broth, 37° C., 24 hours
Procedure: as §1, §2, §3

[8] = test system: Micrococcus luteus IFO 12708; experiment: Bacteriostatic activity MIC, broth dilution; details: nutrient broth, 37° C., 24 hours
Procedure: as §1, §2, §3

[9] = test system: Proteus mirabilis IFO 3849; experiment: Bacteriostatic activity MIC, broth dilution; details: nutrient broth, 37° C., 24 hours
Procedure: as §1, §2, §3

Proteus rettgeri NIH 96 [10] = experiment: Bacteriostatic activity MIC, broth dilution; details: nutrient broth, 37° C., 24 hours
Procedure: as §1, §2, §3

[11] = test system: Proteus vulgaris ATCC 13315; experiment: Bacteriostatic activity MIC, broth dilution; details: nutrient broth, 37° C., 24 hours
Procedure: as §1, §2, §3

[12] = test system: Pseudomonas aeruginosa ATCC 10145; experiment: Bacteriostatic activity MIC, broth dilution; details: nutrient broth, 37° C., 24 hours
Procedure: as §1, §2, §3

[13] = test system: Pseudomonas aeruginosa ATCC 27583; experiment: Bacteriostatic activity MIC, broth dilution; details: nutrient broth, 37° C., 24 hours
Procedure: as §1, §2, §3

[14] = test system: Pseudomonas aeruginosa ATCC 3080; experiment: Bacteriostatic activity MIC, broth dilution; details: nutrient broth, 37° C., 24 hours
Procedure: as §1, §2, §3

[15] = test system: Staphylococcus aureus IFO 12732; experiment: Bacteriostatic activity MIC, broth dilution; details: nutrient broth, 37° C., 24 hours
Procedure: as §1, §2, §3

[16] = test system: Staphylococcus aureus JCI (MRSA); experiment: Bacteriostatic activity MIC, broth dilution; details: nutrient broth, 37° C., 24 hours
Procedure: as §1, §2, §3

Bacillus cereus IFO 3001 [17] = experiment: Bactericidal activity MBC, dilution method; details: 30° C., 30 min
Procedure: (§4) Each minimum inhibitory concentration (MIC) was determined as will be described hereinafter. Aliquots of a suspension of stationary-phase cells, the cell concentration of which had been adjusted to 10^6 cells/mL with nutrient broth in accordance with the general broth dilution method, were mixed with serially-diluted solutions of a compound, respectively. […]
(§5) As a control compound, benzalkonium bromide was used. Using five (5) Gram-negative bacteria and four (4) Gram-positive bacteria as test microorganisms, minimum bactericidal concentrations (MBCs) were determined in a similar manner as described above.

[18] = test system: Bacillus subtilis ATCC 6633; experiment: Bactericidal activity MBC, dilution method; details: 30° C., 30 min
Procedure: as §4, §5

[19] = test system: Bacillus subtilis IFO 3134; experiment: Bactericidal activity MBC, dilution method; details: 30° C., 30 min
Procedure: as §4, §5

[20] = test system: Escherichia coli K12 W3110; experiment: Bactericidal activity MBC, dilution method; details: 30° C., 30 min
Procedure: as §4, §5

[21] = test system: Klebsiella pneumoniae ATCC 13883; experiment: Bactericidal activity MBC, dilution method; details: 30° C., 30 min
Procedure: as §4, §5

Proteus rettgeri NIH 96 [22] = experiment: Bactericidal activity MBC, dilution method; details: 30° C., 30 min
Procedure: as §4, §5

[23] = test system: Pseudomonas aeruginosa ATCC 27583; experiment: Bactericidal activity MBC, dilution method; details: 30° C., 30 min
Procedure: as §4, §5

[24] = test system: Staphylococcus aureus IFO 12732; experiment: Bactericidal activity MBC, dilution method; details: 30° C., 30 min
Procedure: as §4, §5

[25] = test system: Escherichia coli K12 OUT 8401; experiment: Bactericidal activity MBC, dilution method; details: 30° C., 30 min
Procedure: as §2, §5

[26] = test system: Aspergillus niger IFO 6341; experiment: Antimold MIC against eumycetes, broth dilution; details: Sabouraud medium, 30° C., 7 days
Procedure: (§6) As a control compound, TBZ (2-(4′-thiozolyl)benzimidazole) was used. Each minimum inhibitory concentration (MIC) was determined as will be described hereinafter. Following the general broth dilution method, each test microorganisms which had been precultured with Sabouraud medium was diluted with humectant-added, sterilized water to prepare a spore suspension. Aliquots (1 mL) of diluted solutions of a compound were mixed with 1-mL aliquots of the spore suspension, respectively. After incubating the mixtures at 30° C. for 1 week in an incubator, turbidity was relied upon to determine whether or not any growth had taken place. The turbidity-free lowest concentration was recorded as MIC.

[27] = test system: Aspergillus niger TSY 0013; experiment: Antimold MIC against eumycetes, broth dilution; details: Sabouraud medium, 30° C., 7 days
Procedure: as §6

[28] = test system: Aspergillus terreus IFO 6346; experiment: Antimold MIC against eumycetes, broth dilution; details: Sabouraud medium, 30° C., 7 days
Procedure: as §6

[29] = test system: Aureobasidium pullulans IFO 6353; experiment: Antimold MIC against eumycetes, broth dilution; details: Sabouraud medium, 30° C., 7 days
Procedure: as §6

[30] = test system: Chaetomium globosum IFO 6347; experiment: Antimold MIC against eumycetes, broth dilution; details: Sabouraud medium, 30° C., 7 days
Procedure: as §6

[31] = test system: Cladosporium cladosporioides IFO 6348; experiment: Antimold MIC against eumycetes, broth dilution; details: Sabouraud medium, 30° C., 7 days
Procedure: as §6

[32] = test system: Gliocladium virides IFO 6355; experiment: Antimold MIC against eumycetes, broth dilution; details: Sabouraud medium, 30° C., 7 days
Procedure: as §6

[33] = test system: Penicillium funiculosum IFO 6345; experiment: Antimold MIC against eumycetes, broth dilution; details: Sabouraud medium, 30° C., 7 days
Procedure: as §6

Rhizopus nigricans SN 32 = experiment: Antimold MIC against eumycetes, broth dilution; details: Sabouraud medium, 30° C., 7 days
Procedure: as §6

[34] = test system: Trichoderma virides IFO 30498; experiment: Antimold MIC against eumycetes, broth dilution; details: Sabouraud medium, 30° C., 7 days
Procedure: as §6

Molecule | MIC (Bacillus cereus IFO 3001 [1]) [µM] | MIC [2] [µM] | MIC [3] [µM] | MIC [4] [µM] | MIC [5] [µM] | MIC [6] [µM] | MIC [7] [µM] | MIC [8] [µM] | MIC [9] [µM] | MIC (Proteus rettgeri NIH 96 [10]) [µM] | MIC [11] [µM] | MIC [12] [µM] | MIC [13] [µM] | MIC [14] [µM] | MIC [15] [µM] | MIC [16] [µM] | MBC (Bacillus cereus IFO 3001 [17]) [µM] | MBC [18] [µM] | MBC [19] [µM] | MBC [20] [µM] | further results
CCCCCCCC[n+]1cccc(COCCCCOCc2ccc[n+](CCCCCCCC)c2)c1.[Br-].[Br-] [Compound 7-A] | 0.45 | 0.45 | 0.5 | 0.9 | 0.9 | 1.8 | 1.8 | 0.2 | 6.25 | 3.6 | 3.6 | 6.25 | 6.25 | 6.25 | 0.45 | 0.4 | 0.9 | 0.9 | 0.9 | 1.8 | MBC [21]: 3.6 µM; MBC (Proteus rettgeri NIH 96 [22]): 3.6 µM; MBC [23]: 3.6 µM; MBC [24]: 0.9 µM; MBC [25]: 1.8 µM; MIC [26]: 3.6 µM; MIC [27]: 3.6 µM; MIC [28]: 3.6 µM; MIC [29]: 3.6 µM; MIC [30]: 3.6 µM; MIC [31]: 3.6 µM; MIC [32]: 3.6 µM; MIC [33]: 3.6 µM; MIC (Rhizopus nigricans SN 32): 6.25 µM; MIC [34]: 6.25 µM
CCCCCCCC[n+]1ccc(COCCCCOCc2cc[n+](CCCCCCCC)cc2)cc1.[Br-].[Br-] [Compound 7-B] | 0.45 | 0.45 | 0.45 | 0.9 | 0.9 | 3.6 | 1.8 | 0.2 | 6.25 | 3.6 | 3.6 | 3.6 | 3.6 | 6.25 | 0.45 | 0.45 | 0.9 | 0.9 | 0.9 | 1.8 | MBC [21]: 3.6 µM; MBC (Proteus rettgeri NIH 96 [22]): 3.6 µM; MBC [23]: 3.6 µM; MBC [24]: 0.9 µM; MBC [25]: 1.8 µM; MIC [26]: 3.6 µM; MIC [27]: 3.6 µM; MIC [28]: 3.6 µM; MIC [29]: 3.6 µM; MIC [30]: 3.6 µM; MIC [31]: 3.6 µM; MIC [32]: 3.6 µM; MIC [33]: 3.6 µM; MIC (Rhizopus nigricans SN 32): 6.25 µM; MIC [34]: 6.25 µM
CCCCCCCCCC[n+]1cccc(COCCCCOCc2ccc[n+](CCCCCCCCCC)c2)c1.[Br-].[Br-] [Compound 7-C] | 0.2 | 0.1 | 0.2 | 0.45 | 0.45 | 1.8 | 0.45 | 0.1 | 1.8 | 0.9 | 0.45 | 1.8 | 1.8 | 0.9 | 0.2 | 0.45 | 0.2 | 0.2 | 0.45 | 0.45 | MBC [21]: 0.9 µM; MBC (Proteus rettgeri NIH 96 [22]): 0.9 µM; MBC [23]: 0.9 µM; MBC [24]: 0.2 µM; MBC [25]: 0.45 µM; MIC [26]: 1.8 µM; MIC [27]: 1.8 µM; MIC [28]: 0.9 µM; MIC [29]: 1.8 µM; MIC [30]: 0.9 µM; MIC [31]: 0.9 µM; MIC [32]: 1.8 µM; MIC [33]: 1.8 µM; MIC (Rhizopus nigricans SN 32): 1.8 µM; MIC [34]: 0.9 µM
c1ccc2[nH]c(-c3cscn3)nc2c1 [TBZ, 2-(4′-thiozolyl)benzimidazole, reference compound] | – | – | – | – | – | – | – | – | – | – | – | – | – | – | – | – | – | – | – | – | MIC [26]: 25.6 µM (≈ 5.15 µg/mL); MIC [27]: 102.4 µM (≈ 20.6 µg/mL); MIC [28]: 25.6 µM (≈ 5.15 µg/mL); MIC [29]: 0.8 µM (≈ 0.161 µg/mL); MIC [30]: 3.2 µM (≈ 0.644 µg/mL); MIC [31]: 3.2 µM (≈ 0.644 µg/mL); MIC [32]: 3.2 µM (≈ 0.644 µg/mL); MIC [33]: 1.6 µM (≈ 0.322 µg/mL); MIC (Rhizopus nigricans SN 32): 102.4< μM; MIC [34]: 51.2 µM (≈ 10.3 µg/mL)
benzalkonium chloride [reference compound] | 6.4 | 6.4 | 6.4 | 12.8 | 25.6 | 102.4 | 12.8 | 6.4 | 204.8 | 51.2 | 16.4 | 51.2 | 51.2 | 102.4 | 6.4 | 12.8 | – | – | – | – | –
benzalkonium iodide [reference compound] | – | – | – | – | – | – | – | – | – | – | – | – | – | – | – | – | 25.6 | 0.8 | 1.6 | 204.8 | MBC [21]: 102.4 µM; MBC (Proteus rettgeri NIH 96 [22]): 51.2 µM; MBC [23]: 204.8 µM; MBC [24]: 6.4 µM; MBC [25]: 51.2 µM
